Measurements: patent publication US10626125B2, “1,1,1-trifluoro-3-hydroxypropan-2-yl carbamate derivatives as MAGL inhibitors” (PFIZER INC., priority 2017, dated 2020)
Where two headings read alike, the source gives them in different places.

Tests used:
[1] = molecular target: T1, human recombinant Monoacylglycerol Lipase (Homo sapiens, UniProt Q99685); experiment: MAGL enzymatic assay (IC50; 7-HCA substrate added at T=0 min or T=30 min); assay type: biochemical
T1 sequence (Q99685 1-303): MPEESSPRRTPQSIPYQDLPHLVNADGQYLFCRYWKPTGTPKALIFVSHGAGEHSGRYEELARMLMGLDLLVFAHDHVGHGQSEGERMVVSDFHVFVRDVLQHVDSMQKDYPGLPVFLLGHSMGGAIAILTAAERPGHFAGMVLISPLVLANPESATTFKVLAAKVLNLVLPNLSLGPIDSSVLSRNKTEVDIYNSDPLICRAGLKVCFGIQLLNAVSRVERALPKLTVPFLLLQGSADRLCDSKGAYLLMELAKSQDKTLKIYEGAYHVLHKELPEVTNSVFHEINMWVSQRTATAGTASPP

[2] = molecular target: T1, human recombinant Monoacylglycerol Lipase; experiment: MAGL inactivation (kinact/KI from enzyme progress curves, T=0 min protocol); settings: from plot of Kobs vs. compound concentration, geometric mean of 2-5 determinations (b: ≥6)
[3] = MAGL (T = 30 min) IC50, substrate 7-HCA added after 30 minute incubation (T=30 min), geometric mean of 2-5 determinations unless otherwise indicated
[4] = substrate 7-HCA added immediately (T=0 min), geometric mean of 2-5 determinations unless otherwise indicated, read-out: MAGL (T = 0 min) IC50
[5] = read-out: MAGL (T=30 min) IC50, 30 minute incubation of compound with MAGL enzyme before addition of 7-HCA substrate
[6] = MAGL (T=30 min) IC50, 30 minute incubation of compound with MAGL enzyme before addition of 7-HCA substrate

Cc1nn(C2CC3(CCN(C(=O)O[C@H](CO)C(F)(F)F)CC3)C2)c(C)c1C [Example 65, (2R)-1,1,1-trifluoro-3-hydroxypropan-2-yl 2-(3,4,5-trimethyl-1H-pyrazol-1-yl)-7-azaspiro[3.5]nonane-7-carboxylate]
IC50 [1, 3]: 4 nM
IC50 [1, 4]: 44 nM
MAGL kinact/KI [2]: 10600 1/s per M

O=C(O[C@H](CO)C(F)(F)F)N1CCC2(CC1)CC(c1ccnc(C(F)(F)F)c1)C2 [Example 68, (2R)-1,1,1-trifluoro-3-hydroxypropan-2-yl 2-[2-(trifluoromethyl)pyridin-4-yl]-7-azaspiro[3.5]nonane-7-carboxylate]
IC50 [1, 3]: 0.9 nM
IC50 [1, 4]: 9 nM
MAGL kinact/KI [2]: 88300 1/s per M

N#Cc1cccc(C2CCOC3(CCN(C(=O)OC(CO)C(F)(F)F)CC3)C2)c1 (single isomer, unassigned) [diastereomer of Example 73]
IC50 [1, 5]: 74 nM

N#Cc1ccc(C2COC3(CCN(C(=O)O[C@H](CO)C(F)(F)F)CC3)C2)nc1 (single isomer, unassigned) [Example 38]
IC50 [1, 3]: 24 nM
IC50 [1, 4]: 200 nM
MAGL kinact/KI [2]: 1610 1/s per M

O=C(O[C@H](CO)C(F)(F)F)N1CCC2(CC1)CC(n1cc(C(F)(F)F)cn1)C2 [Example 1, (2R)-1,1,1-Trifluoro-3-hydroxypropan-2-yl 2-[4-(trifluoromethyl)-1H-pyrazol-1-yl]-7-azaspiro[3.5]nonane-7-carboxylate]
IC50 [1, 3]: 2 nM
IC50 [1, 4]: 12 nM
MAGL kinact/KI [2]: 22200 1/s per M

O=C(O[C@H](CO)C(F)(F)F)N1CCC2(CCC(n3cc(C(F)F)cn3)CO2)CC1 (single isomer, unassigned) [Example 75]
IC50 [1, 3]: 12 nM
IC50 [1, 4]: 115 nM
MAGL kinact/KI [2]: 7370 1/s per M

O=C(O[C@H](CO)C(F)(F)F)N1CCC2(CC1)CC(c1ccc(F)cn1)CO2 (single isomer, unassigned) [Example 16]
IC50 [1, 3]: 9 nM
IC50 [1, 4]: 92 nM
MAGL kinact/KI [2]: 5010^b 1/s per M

O=C(OC(CO)C(F)(F)F)N1CCC2(CCC(n3cc(C(F)(F)F)cn3)CO2)CC1 (single isomer, unassigned) [diastereomer of Example 69]
IC50 [1, 5]: 3 nM

O=C(O[C@H](CO)C(F)(F)F)N1CCC2(CC1)CC(c1ccc(C(F)F)cn1)CO2 (single isomer, unassigned) [diastereomer of Example 39]
IC50 [1, 5]: 31 nM

O=C(O[C@H](CO)C(F)(F)F)N1CCC2(CC1)CC(c1ccc(C(F)F)cn1)C2 [Example 48, (2R)-1,1,1-trifluoro-3-hydroxypropan-2-yl 2-[5-(difluoromethyl)pyridin-2-yl]-7-azaspiro[3.5]nonane-7-carboxylate]
IC50 [1, 3]: 2 nM
IC50 [1, 4]: 18 nM
MAGL kinact/KI [2]: 26000 1/s per M

O=C(O[C@H](CO)C(F)(F)F)N1CCC2(CC1)CC(c1ccc(C(F)F)nc1)CO2 (single isomer, unassigned) [Example 36]
IC50 [1, 3]: 27 nM
IC50 [1, 4]: 239 nM
MAGL kinact/KI [2]: 1440 1/s per M

O=C(O[C@H](CO)C(F)(F)F)N1CCC2(CC1)CC(n1cc(C(F)F)cn1)CO2 (single isomer, unassigned) [Example 20]
IC50 [1, 3]: 11 nM
IC50 [1, 4]: 107 nM
MAGL kinact/KI [2]: 7170 1/s per M

N#Cc1ccc(C2COC3(CCN(C(=O)OC(CO)C(F)(F)F)CC3)C2)nc1 (single isomer, unassigned) [diastereomer of Example 38]
IC50 [1, 5]: 336 nM

O=C(OC(CO)C(F)(F)F)N1CCC2(CC1)CC(c1ccccn1)CO2 (single isomer, unassigned) [diastereomer of Example 41]
IC50 [1, 5]: 20 nM

O=C(O[C@H](CO)C(F)(F)F)N1CCC2(CC1)CC(n1ncc3ccccc31)CO2 (single isomer, unassigned) [diastereomer of Example 62]
IC50 [1, 5]: 49 nM

O=C(OC(CO)C(F)(F)F)N1CCC2(CC1)CC(n1ccc(C(F)(F)F)n1)CO2 (single isomer, unassigned) [diastereomer of Example 53]
IC50 [1, 5]: 9 nM

N#Cc1cccc(C2COC3(CCN(C(=O)O[C@H](CO)C(F)(F)F)CC3)C2)c1F (single isomer, unassigned) [diastereomer of Example 71]
IC50 [1, 6]: 8 nM

O=C(OC(CO)C(F)(F)F)N1CCC2(CCC(n3cc(C(F)F)cn3)CO2)CC1 (single isomer, unassigned) [diastereomer of Example 75]
IC50 [1, 5]: 3 nM

O=C(OC(CO)C(F)(F)F)N1CCC2(CC1)CC(c1ccc(F)cc1)CO2 (single isomer, unassigned) [diastereomer of Example 34]
IC50 [1, 5]: 1 nM

N#Cc1ccc([C@@H]2COC3(CCN(C(=O)O[C@H](CO)C(F)(F)F)CC3)C2)cc1F [diastereomer of Example 27, (2R)-1,1,1-trifluoro-3-hydroxypropan-2-yl (3R)-3-(4-cyano-3-fluorophenyl)-1-oxa-8-azaspiro[4.5]decane-8-carboxylate]
IC50 [1, 6]: 17 nM

O=C(OC(CO)C(F)(F)F)N1CCC2(CC1)CC(c1ccc(C(F)(F)F)cn1)CO2 (single isomer, unassigned) [diastereomer of Example 40]
IC50 [1, 5]: 9 nM

O=C(OC(CO)C(F)(F)F)N1CCC2(CC1)CC(c1ccc(F)cc1F)CO2 (single isomer, unassigned) [diastereomer of Example 33]
IC50 [1, 5]: 2 nM

N#Cc1cc(C2COC3(CCN(C(=O)OC(CO)C(F)(F)F)CC3)C2)ccc1F (single isomer, unassigned) [diastereomer of Example 28]
IC50 [1, 5]: 14 nM

N#Cc1ccc(C2COC3(CCN(C(=O)O[C@H](CO)C(F)(F)F)CC3)C2)cc1 (single isomer, unassigned) [diastereomer of Example 31]
IC50 [1, 5]: 23 nM

CC(C)(C)c1ccn(C2COC3(CCN(C(=O)OC(CO)C(F)(F)F)CC3)C2)n1 (single isomer, unassigned) [diastereomer of Example 52]
IC50 [1, 5]: 4 nM

O=C(O[C@H](CO)C(F)(F)F)N1CCC2(CC1)CC(c1c(F)cccc1F)CO2 (single isomer, unassigned) [diastereomer of Example 32]
IC50 [1, 6]: 1 nM

N#Cc1ccc(C2COC3(CCN(C(=O)O[C@H](CO)C(F)(F)F)CC3)C2)c(F)c1 (single isomer, unassigned) [diastereomer of Example 72]
IC50 [1, 6]: 12 nM

O=C(O[C@H](CO)C(F)(F)F)N1CCC2(CC1)C[C@@H](n1cc(F)cn1)CO2 [Example 11, (2R)-1,1,1-Trifluoro-3-hydroxypropan-2-yl (3R)-3-(4-fluoro-1H-pyrazol-1-yl)-1-oxa-8-azaspiro[4.5]decane-8-carboxylate]
IC50 [1, 3]: 15 nM
IC50 [1, 4]: 211 nM

CN(C1CCOC2(CCN(C(=O)OC(CO)C(F)(F)F)CC2)C1)S(=O)(=O)CC1CC1 (single isomer, unassigned) [diastereomer of Example 50]
IC50 [1, 5]: 284 nM

O=C(OC(CO)C(F)(F)F)N1CCC2(CCC(n3cc(F)cn3)CO2)CC1 (single isomer, unassigned) [diastereomer of Example 70]
IC50 [1, 5]: 14 nM

O=C(OC(CO)C(F)(F)F)N1CCC2(CCC(c3ccc(F)cn3)CO2)CC1 (single isomer, unassigned) [diastereomer of Example 74]
IC50 [1, 5]: 15 nM

Cc1cnn(C2COC3(CCN(C(=O)O[C@H](CO)C(F)(F)F)CC3)C2)c1 (single isomer, unassigned) [diastereomer of Example 24]
IC50 [1, 5]: 60 nM

CN(C1CCOC2(CCN(C(=O)O[C@H](CO)C(F)(F)F)CC2)C1)S(=O)(=O)CC1CC1 (single isomer, unassigned) [Example 50]
IC50 [1, 3]: 67 nM
IC50 [1, 4]: 752 nM

O=C(OC(CO)C(F)(F)F)N1CCC2(CC1)CC(n1cc(Cl)cn1)CO2 (single isomer, unassigned) [diastereomer of Example 22]
IC50 [1, 5]: 23 nM

O=C(O[C@H](CO)C(F)(F)F)N1CCC2(CC1)C[C@H](n1cc(F)cn1)CO2 [Example 10, (2R)-1,1,1-Trifluoro-3-hydroxypropan-2-yl (3S)-3-(4-fluoro-1H-pyrazol-1-yl)-1-oxa-8-azaspiro[4.5]decane-8-carboxylate]
IC50 [1, 3]: 49 nM
IC50 [1, 4]: 563 nM

CC(C)(C)c1cnn(C2COC3(CCN(C(=O)OC(CO)C(F)(F)F)CC3)C2)c1 (single isomer, unassigned) [diastereomer of Example 21]
IC50 [1, 5]: 7 nM

O=C(O[C@H](CO)C(F)(F)F)N1CCC2(CC1)CC(n1cc(C(F)F)cn1)CO2 (single isomer, unassigned) [diastereomer of Example 20]
IC50 [1, 6]: 65 nM

O=C(O[C@H](CO)C(F)(F)F)N1CCC2(CC1)CC(Oc1ccc(C(F)F)nc1)C2 [Example 19, (2R)-1,1,1-Trifluoro-3-hydroxypropan-2-yl 2-{[6-(difluoromethyl)pyridin-3-yl]oxy}-7-azaspiro[3.5]nonane-7-carboxylate]
IC50 [1, 3]: 1 nM
IC50 [1, 4]: 8 nM

Cc1cn(C2COC3(CCN(C(=O)OC(CO)C(F)(F)F)CC3)C2)nc1C (single isomer, unassigned) [diastereomer of Example 54]
IC50 [1, 5]: 20 nM

O=C(OC(CO)C(F)(F)F)N1CCC2(CC1)CC(c1cc(C(F)F)ccn1)CO2 (single isomer, unassigned) [diastereomer of Example 35]
IC50 [1, 5]: 19 nM
